Experimental data: patent EP4467141A1, “PYRAZOLO-QUINOLINES AS SELECTIVE INHIBITORS OF GENOTOXIC STRESS-INDUCED IKK/NF- KB PATHWAYS FOR CANCER THERAPY” (Max-Delbrück-Centrum für Molekulare Medizin in der …, priority 2023, dated 2024)

Columns and labels:
Test in all cases: Kinase panel study
Type in all cases: biochemical
Conditions in all cases: read-out: Percentage of inhibition; for inhibition at 1 µM: 1000nM; for inhibition at 10 µM: 10000nM
EGFR (ErbB1) C797S = molecular target: T1, EGFR (ErbB1) C797S (Homo sapiens, UniProt P00533, C797S)
T1 construct: purchased Thermo Fisher Scientific
Outline: (§1)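 In vitro, kinase panel; ZLyte or Adapta SOP; single-concentration testing (1 or 10 µM); output = % inhibition, plus IC50 in panel.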

FGFR3 V555M = molecular target: T2, FGFR3 V555M (Homo sapiens, UniProt P22607, V555M)
T2 construct: purchased Thermo Fisher Scientific
Outline: as §1

KIT V560G = molecular target: T3, KIT V560G (Homo sapiens, UniProt P10721, V560G)
T3 construct: purchased Thermo Fisher Scientific
Outline: as §1

LCK = molecular target: T4, LCK (Homo sapiens, UniProt P06239)
T4 construct: purchased Thermo Fisher Scientific
Outline: as §1

NEK1 = molecular target: T5, NEK1 (Homo sapiens, UniProt Q96PY6)
T5 construct: purchased Thermo Fisher Scientific
T5 sequence (Q96PY6 1-1258): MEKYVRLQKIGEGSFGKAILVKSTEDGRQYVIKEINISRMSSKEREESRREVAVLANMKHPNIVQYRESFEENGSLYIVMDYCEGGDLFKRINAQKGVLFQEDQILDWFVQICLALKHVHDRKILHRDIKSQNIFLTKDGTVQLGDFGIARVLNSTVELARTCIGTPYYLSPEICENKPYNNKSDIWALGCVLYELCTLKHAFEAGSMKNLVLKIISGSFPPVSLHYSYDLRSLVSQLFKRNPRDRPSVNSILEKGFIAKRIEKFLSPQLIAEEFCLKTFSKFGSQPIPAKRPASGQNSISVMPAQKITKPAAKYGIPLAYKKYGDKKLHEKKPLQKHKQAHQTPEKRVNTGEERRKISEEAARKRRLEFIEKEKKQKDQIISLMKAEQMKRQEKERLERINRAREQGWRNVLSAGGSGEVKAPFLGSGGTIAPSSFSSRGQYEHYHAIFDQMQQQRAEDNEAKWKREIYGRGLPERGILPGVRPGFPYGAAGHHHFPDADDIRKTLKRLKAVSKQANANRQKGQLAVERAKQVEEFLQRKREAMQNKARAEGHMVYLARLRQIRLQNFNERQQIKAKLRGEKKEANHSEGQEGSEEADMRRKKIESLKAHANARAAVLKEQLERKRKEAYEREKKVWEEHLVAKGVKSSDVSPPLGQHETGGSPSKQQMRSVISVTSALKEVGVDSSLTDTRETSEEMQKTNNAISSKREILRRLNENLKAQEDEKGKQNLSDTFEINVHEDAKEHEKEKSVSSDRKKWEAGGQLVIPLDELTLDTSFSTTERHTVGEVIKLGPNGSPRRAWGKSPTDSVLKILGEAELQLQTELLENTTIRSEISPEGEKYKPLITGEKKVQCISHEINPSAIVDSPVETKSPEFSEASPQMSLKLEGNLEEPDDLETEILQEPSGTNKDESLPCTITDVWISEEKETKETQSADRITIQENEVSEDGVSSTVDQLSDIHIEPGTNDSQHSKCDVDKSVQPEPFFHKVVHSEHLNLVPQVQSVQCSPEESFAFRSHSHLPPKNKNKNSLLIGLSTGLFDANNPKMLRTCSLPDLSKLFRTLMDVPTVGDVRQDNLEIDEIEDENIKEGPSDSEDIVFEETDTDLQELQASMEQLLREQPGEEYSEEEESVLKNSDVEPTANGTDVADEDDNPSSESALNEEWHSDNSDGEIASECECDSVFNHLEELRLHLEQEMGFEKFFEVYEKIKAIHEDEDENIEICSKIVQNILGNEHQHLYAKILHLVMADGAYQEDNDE
Outline: as §1

T2 sequence (P22607 23-806 V555M): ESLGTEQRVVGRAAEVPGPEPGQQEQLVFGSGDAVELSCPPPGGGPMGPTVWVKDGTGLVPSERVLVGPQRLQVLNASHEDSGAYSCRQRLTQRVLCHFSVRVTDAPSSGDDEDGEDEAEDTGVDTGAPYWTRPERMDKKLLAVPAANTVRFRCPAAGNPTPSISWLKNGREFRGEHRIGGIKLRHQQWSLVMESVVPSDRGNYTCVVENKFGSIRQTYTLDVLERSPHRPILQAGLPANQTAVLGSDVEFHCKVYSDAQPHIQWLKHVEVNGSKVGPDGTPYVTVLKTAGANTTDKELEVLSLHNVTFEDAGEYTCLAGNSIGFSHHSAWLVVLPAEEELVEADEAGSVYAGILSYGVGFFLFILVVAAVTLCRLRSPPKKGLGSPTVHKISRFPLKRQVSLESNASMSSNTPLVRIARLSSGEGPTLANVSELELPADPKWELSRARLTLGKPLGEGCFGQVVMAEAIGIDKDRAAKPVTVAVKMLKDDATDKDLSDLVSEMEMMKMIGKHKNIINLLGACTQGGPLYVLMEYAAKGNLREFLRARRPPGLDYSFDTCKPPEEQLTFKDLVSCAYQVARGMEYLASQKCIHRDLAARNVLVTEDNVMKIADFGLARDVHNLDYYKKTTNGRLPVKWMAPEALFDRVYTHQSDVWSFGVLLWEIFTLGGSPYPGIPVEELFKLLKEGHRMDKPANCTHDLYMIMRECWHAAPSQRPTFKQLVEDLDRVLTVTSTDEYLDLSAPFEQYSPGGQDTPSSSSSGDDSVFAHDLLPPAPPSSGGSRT
T4 sequence (P06239 whole entry): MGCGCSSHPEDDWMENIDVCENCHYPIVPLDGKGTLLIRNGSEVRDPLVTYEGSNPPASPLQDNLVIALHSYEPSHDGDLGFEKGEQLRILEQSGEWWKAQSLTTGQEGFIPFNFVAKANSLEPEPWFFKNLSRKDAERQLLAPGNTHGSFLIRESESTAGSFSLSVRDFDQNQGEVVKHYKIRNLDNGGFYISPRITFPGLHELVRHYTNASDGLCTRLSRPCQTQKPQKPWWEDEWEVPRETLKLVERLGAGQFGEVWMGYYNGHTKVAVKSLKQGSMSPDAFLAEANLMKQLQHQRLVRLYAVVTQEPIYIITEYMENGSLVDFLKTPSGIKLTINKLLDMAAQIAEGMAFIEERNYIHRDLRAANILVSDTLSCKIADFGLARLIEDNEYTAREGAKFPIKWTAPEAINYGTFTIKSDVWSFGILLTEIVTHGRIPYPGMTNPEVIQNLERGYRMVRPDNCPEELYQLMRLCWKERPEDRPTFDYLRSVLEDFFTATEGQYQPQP
T1 sequence (P00533 25-1210 C797S): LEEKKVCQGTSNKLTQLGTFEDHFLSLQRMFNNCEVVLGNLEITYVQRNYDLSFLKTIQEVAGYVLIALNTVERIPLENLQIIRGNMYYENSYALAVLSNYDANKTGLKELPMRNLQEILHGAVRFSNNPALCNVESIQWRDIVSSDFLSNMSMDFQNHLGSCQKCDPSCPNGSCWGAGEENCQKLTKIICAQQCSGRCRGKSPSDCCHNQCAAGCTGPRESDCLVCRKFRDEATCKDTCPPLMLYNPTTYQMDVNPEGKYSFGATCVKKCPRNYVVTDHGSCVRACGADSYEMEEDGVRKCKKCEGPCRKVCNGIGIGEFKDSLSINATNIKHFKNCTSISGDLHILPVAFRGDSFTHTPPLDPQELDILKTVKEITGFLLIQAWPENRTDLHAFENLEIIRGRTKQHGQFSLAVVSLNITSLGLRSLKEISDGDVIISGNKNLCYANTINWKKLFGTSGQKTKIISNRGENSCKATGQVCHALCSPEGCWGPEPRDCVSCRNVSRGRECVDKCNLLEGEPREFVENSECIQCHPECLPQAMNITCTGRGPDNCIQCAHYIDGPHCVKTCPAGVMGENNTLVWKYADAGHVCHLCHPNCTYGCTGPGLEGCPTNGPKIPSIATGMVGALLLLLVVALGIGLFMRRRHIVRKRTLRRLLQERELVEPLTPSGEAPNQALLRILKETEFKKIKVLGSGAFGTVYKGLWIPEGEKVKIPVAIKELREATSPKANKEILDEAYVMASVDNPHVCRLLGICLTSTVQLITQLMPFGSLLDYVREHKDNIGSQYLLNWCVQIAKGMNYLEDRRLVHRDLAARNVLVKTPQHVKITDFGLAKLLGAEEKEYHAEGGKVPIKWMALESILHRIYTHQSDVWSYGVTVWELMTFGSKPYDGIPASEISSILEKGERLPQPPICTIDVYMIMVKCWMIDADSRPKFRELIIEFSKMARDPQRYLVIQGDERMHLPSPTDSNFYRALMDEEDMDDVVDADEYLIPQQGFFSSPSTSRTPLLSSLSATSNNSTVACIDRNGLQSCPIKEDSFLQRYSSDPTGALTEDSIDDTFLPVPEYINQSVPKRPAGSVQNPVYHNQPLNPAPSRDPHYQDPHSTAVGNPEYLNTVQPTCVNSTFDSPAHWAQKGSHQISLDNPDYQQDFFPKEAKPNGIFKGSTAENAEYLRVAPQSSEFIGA
T3 sequence (P10721 26-976 V560G): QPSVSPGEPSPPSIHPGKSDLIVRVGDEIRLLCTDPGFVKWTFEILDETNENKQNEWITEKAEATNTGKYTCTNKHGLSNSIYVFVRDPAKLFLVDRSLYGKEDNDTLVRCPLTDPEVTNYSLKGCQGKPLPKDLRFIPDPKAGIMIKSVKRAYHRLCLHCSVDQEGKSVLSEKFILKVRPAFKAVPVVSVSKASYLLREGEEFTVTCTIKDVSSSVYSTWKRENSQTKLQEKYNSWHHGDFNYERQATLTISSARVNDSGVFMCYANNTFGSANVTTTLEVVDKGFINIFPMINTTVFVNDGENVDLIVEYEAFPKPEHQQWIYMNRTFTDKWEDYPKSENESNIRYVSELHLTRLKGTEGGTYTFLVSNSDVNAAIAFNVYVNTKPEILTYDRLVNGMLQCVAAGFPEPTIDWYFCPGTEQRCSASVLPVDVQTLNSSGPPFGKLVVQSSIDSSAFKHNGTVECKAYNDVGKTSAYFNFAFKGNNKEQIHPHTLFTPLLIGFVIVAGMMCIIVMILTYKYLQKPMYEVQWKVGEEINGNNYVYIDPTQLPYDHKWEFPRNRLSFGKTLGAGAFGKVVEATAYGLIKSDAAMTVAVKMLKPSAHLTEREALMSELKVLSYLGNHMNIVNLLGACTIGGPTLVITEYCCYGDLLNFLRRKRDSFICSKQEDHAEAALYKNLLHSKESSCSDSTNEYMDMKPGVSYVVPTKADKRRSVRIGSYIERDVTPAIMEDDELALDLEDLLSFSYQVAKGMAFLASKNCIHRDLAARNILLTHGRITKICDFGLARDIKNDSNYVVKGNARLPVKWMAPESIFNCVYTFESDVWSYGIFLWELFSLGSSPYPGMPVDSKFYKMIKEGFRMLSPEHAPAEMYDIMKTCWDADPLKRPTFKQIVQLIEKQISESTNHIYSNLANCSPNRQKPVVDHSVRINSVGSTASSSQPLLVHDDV

SMILES	inhibition at 1 µM (EGFR (ErbB1) C797S) [%]	inhibition at 10 µM (EGFR (ErbB1) C797S) [%]	inhibition at 1 µM (FGFR3 V555M) [%]	inhibition at 10 µM (FGFR3 V555M) [%]	inhibition at 1 µM (KIT V560G) [%]	inhibition at 10 µM (KIT V560G) [%]	inhibition at 1 µM (LCK) [%]	inhibition at 10 µM (LCK) [%]	inhibition at 1 µM (NEK1) [%]	inhibition at 10 µM (NEK1) [%]
COc1ccc2c(c1OC)c(=O)n1c3ccc(O)cc3c3ccnc2c31 [MW01, 5-Hydroxy-10,11-dimethoxy-9H-benzo[c]indolo[3,2,1-ij][1,5]naphthyridin-9-one]	4	11	5	11	12	7	12	37	23	58
COc1ccc2cc3c(N)nn(C(=O)c4cccc(N(C)C)c4)c3nc2c1 [MW05, (3-Amino-7-methoxypyrazolo[3,4-b]quinolin-1-yl)-[3-(dimethylamino)phenyl]methanone]	1	-14	-30	-9	11	2	8	5	-1	6
